Data taken from patent publication US20190151312A1, “HEPARAN SULFATE BIOSYNTHESIS INHIBITORS FOR THE TREATMENT OF DISEASES” (BioMarin Pharmaceutical Inc., priority 2014, published 2019).

The molecules below were run on GM01896 cells (MPS II dermal fibroblasts) (assay: Assay 1: MPS cellular assay, MPS II (heparan sulfate disaccharide biomarkers by LC-MS)). Conditions: Assay 1 for MPS II, heparan sulfate disaccharide biomarkers (I2a4, I2a6, I2S0 and/or I2S6), read-out: IC50 Range.
Type: cell-based, human
Description: Dermal fibroblasts from humans with an MPS disorder and from healthy donors are grown. Cells are expanded and kept in culture for analysis. Human foreskin fibroblasts can be obtained from the American Type Culture Collection (CRL-1634). Human dermal fibroblasts derived from biopsies of individuals are purchased from Coriell Institute: clinically healthy individuals, GM00408, GM00409, GM00200 (clinically unaffected sibling of an individual with metachromatic leukodystrophy), GM05659, GM08398, and GM15871 (clinically unaffected sibling of an individual with unclassified Ehlers-Danlos syndrome); heterozygous MPS I carriers, GM01392, GM01393 and GM0003; homozygous individuals affected with MPS I, GM06214, GM11495, GM00034, GM01391 and GM01256; individuals with MPS II, GM01896, GM03181, GM00615 and GM00298; individuals with MPS IIIA, GM00879, GM00643, GM00934, GM06110 and GM00629; MPS IIIB, GM01426; MPS IIIC, GM05157; MPS IIID, GM05093; and MPS VII, GM00121. All cells are grown in DMEM containing 50 U ml-1 penicillin, […] ml-1 streptomycin, 2 mM glutamine and 10% FBS. Cells are seeded on 15-cm-diameter tissue culture dishes, grown to confluence and maintained in culture for analysis. Sulfamidase activity in cell extracts is measured with 4-methylumbelliferyl-α-D-N-sulfoglucosaminide according the vendors instructions substituting Tris-acetate buffer (pH 6.5; Moscerdam).
Cells are treated with a compound of the invention at a concentration at or below 30 μM for 4 to 21 days. Cell monolayers are washed with phosphate buffered saline and detached by treatment with GIBCO trypsin-EDTA solution (Invitrogen). After centrifugation, the supernatant is removed and the cells are lysed in 0.5 mL of 0.1 N sodium hydroxide. The amount of protein is determined by bicinchoninic acid (BCA assay, Thermo Scientific). GAGs are isolated by anion exchange chromatography and digested with glycosaminoglycan lyases (heparinases I, II, and III, IBEX).
Enzymatically depolymerized GAG preparations are differentially mass labeled by reductive amination with [^12C6]aniline. Briefly, heparan sulfate disaccharides (1-10 pmol) are dried down in a centrifugal evaporator and reacted with [^12C6]aniline or [^13C6]aniline (15 μL, 165 μmol) and 15 μL of 1 M NaCNBH3 (Sigma-Aldrich) freshly prepared in dimethylsulfoxide/acetic acid (7:3, v/v) is added to each sample. Reactions are carried out at 37° C. for 16 h and then dried in a centrifugal evaporator. Unsubstituted amines are reacted with propionic anhydride (Sigma-Aldrich). Dried samples are reconstituted in 20 μL of 50% methanol, and 3 μL of propionic anhydride (Sigma-Aldrich, 23.3 μmol) is added. Reactions are carried out at ˜23° C. for 2 h. Acylated disaccharides are subsequently aniline tagged as described above. Each sample is mixed with commercially available standard unsaturated disaccharides (Seikagaku), standard N-sulfoglucosamine, glucosamine-6-sulfate, N-acetylgalactosamine-4-sulfate and N-acetylgalactosamine-6-sulfate (Sigma-Aldrich), and/or synthesized α-L-idopyranosyluronate-(1,4)-2-N-acetyl-2-deoxy-α/β-D-glucopyranoside (I0S0). All standards are tagged with [^13C6]aniline (Sigma-Aldrich). Samples are then analyzed by LC-MS using an LTQ Orbitrap Discovery electrospray ionization mass spectrometer (Thermo Scientific) equipped with quaternary HPLC pump (Finnigan Surveyor MS pump) and a reverse-phase capillary column as described in J. Biol. Chem. 2008, 283(48), 33674.
MPS II: Assay 1, as described above, was used to determine activity for MPS II using GM01896 cells. […] Extracted ion chromatograms were obtained. Cell viability was monitored using alamar blue or ATP quantification. IC50's were calculated using curve fitting within the ChemInnovation CBIS database system.

Q: How did the IC50 turn out when `Cn1c(=O)n(C)c2cc(-c3cc(Nc4ccc(Cl)cc4)nc(N4CCOCC4)n3)ccc21` [5-{6-[(4-chlorophenyl)amino]-2-morpholin-4-ylpyrimidin-4-yl}-1,3-dimethyl-3-hydrobenzimidazol-2-one] was run?
A: < 500 nM

Q: Which IC50 does the source give for `Cn1c(=O)n(CCN2CCOCC2)c2ccc(-c3cc(Nc4ccc(Cl)cc4)nc(N4CCOCC4)n3)cc21` [5-{6-[(4-chlorophenyl)amino]-2-morpholin-4-ylpyrimidin-4-yl}-3-methyl-1-(2-morpholin-4-ylethyl)-3-hydrobenzimidazol-2-one] here?
A: 500 to 1000 nM

Q: How did the IC50 turn out when `Cn1c(=O)[nH]c2ccc(-c3cc(Nc4ccc(Cl)cc4)nc(N4CCOCC4)n3)cc21` [6-{6-[(4-chlorophenyl)amino]-2-morpholin-4-ylpyrimidin-4-yl}-1-methyl-3-hydrobenzimidazol-2-one] was run?
A: < 500 nM

Same assay, conditions: Homo sapiens, Fibroblast, Assay 1 for MPS II, heparan sulfate disaccharide biomarkers (I2a4, I2a6, I2S0 and/or I2S6), read-out: IC50 Range

Q: With `CC(=O)c1ccc(Nc2cc(-c3ccc4cnn(C)c4c3)nc(N3CCOCC3)n2)cc1` [1-acetyl-4-{[6-(1-methyl(1H-indazol-6-yl))-2-morpholin-4-ylpyrimidin-4-yl]amino}benzene] as the molecule, how does the IC50 read?
A: 500 to 1000 nM

Q: `Cn1ncc2ccc(-c3cc(Nc4ccc([S+](C)[O-])cc4)nc(N4CCOCC4)n3)cc21` (stereo not shown) [1-{[6-(1-methyl(1H-indazol-6-yl))-2-morpholin-4-ylpyrimidin-4-yl]amino}-4-(methylsulfinyl)benzene] was tested. Which IC50 did it give?
A: 1000 to 5000 nM

Q: Which IC50 does the source give for `Cn1ncc2ccc(-c3cc(Nc4ccc(S(C)(=O)=O)cc4)nc(N4CCOCC4)n3)cc21` [1-{[6-(1-methyl(1H-indazol-6-yl))-2-morpholin-4-ylpyrimidin-4-yl]amino}-4-(methylsulfonyl)benzene] here?
A: 1000 to 5000 nM

Q: How did the IC50 turn out when `Cc1nn(C)c2cc(-c3cc(Nc4ccc5[nH]ncc5c4)nc(N4CCOCC4)n3)ccc12` [1H-indazol-5-yl[6-(1,3-dimethyl(1H-indazol-6-yl))-2-morpholin-4-ylpyrimidin-4-yl]amine] was run?
A: 1000 to 5000 nM

Q: For `Cn1ncc2ccc(-c3cc(Nc4ccc5[nH]ncc5c4)nc(N4CCOCC4)n3)cc21` [1H-indazol-5-yl[6-(1-methyl(1H-indazol-6-yl))-2-morpholin-4-ylpyrimidin-4-yl]amine], which IC50 is on record?
A: 1000 to 5000 nM

Q: How did the IC50 turn out when `Cc1nn(C)c2cc(-c3cc(Nc4ccc5cn[nH]c5c4)nc(N4CCOCC4)n3)ccc12` [1H-indazol-6-yl[6-(1,3-dimethyl(1H-indazol-6-yl))-2-morpholin-4-ylpyrimidin-4-yl]amine] was run?
A: 1000 to 5000 nM

Q: Which IC50 does the source give for `Cn1ncc2ccc(-c3cc(Nc4ccc5cn[nH]c5c4)nc(N4CCOCC4)n3)cc21` [1H-indazol-6-yl[6-(1-methyl(1H-indazol-6-yl))-2-morpholin-4-ylpyrimidin-4-yl]amine] here?
A: 1000 to 5000 nM

Q: With `Cn1nc(CCN2CCOCC2)c2ccc(-c3cc(Nc4ccc5cn[nH]c5c4)nc(N4CCOCC4)n3)cc21` [1H-indazol-6-yl{6-[1-methyl-3-(2-morpholin-4-ylethyl)(1H-indazol-6-yl)]-2-morpholin-4-ylpyrimidin-4-yl}amine] as the molecule, how does the IC50 read?
A: 500 to 1000 nM

Q: Which IC50 does the source give for `Cn1ccc2ccc(Nc3cc(-c4ccc5c(CCN6C(=O)c7ccccc7C6=O)nn(C)c5c4)nc(N4CCOCC4)n3)cc21` [2-[2-(1-methyl-6-{6-[(1-methylindol-6-yl)amino]-2-morpholin-4-ylpyrimidin-4-yl}-1H-indazol-3-yl)ethyl]benzo[c]azoline-1,3-dione] here?
A: 500 to 1000 nM

Q: For `Cn1ccc2ccc(Nc3cc(-c4ccc5c(CCCN6C(=O)c7ccccc7C6=O)nn(C)c5c4)nc(N4CCOCC4)n3)cc21` [2-[3-(1-methyl-6-{6-[(1-methylindol-6-yl)amino]-2-morpholin-4-ylpyrimidin-4-yl}-1H-indazol-3-yl)propyl]benzo[c]azoline-1,3-dione], which IC50 is on record?
A: < 500 nM

Q: With `Cn1nc(CCCO)c2ccc(-c3cc(Nc4ccc(Cl)cc4)nc(N4CCOCC4)n3)cc21` [3-(6-{6-[(4-chlorophenyl)amino]-2-morpholin-4-ylpyrimidin-4-yl}-1-methyl-1H-indazol-3-yl)propan-1-ol] as the molecule, how does the IC50 read?
A: 500 to 1000 nM

Q: Which IC50 does the source give for `Cn1ncc2ccc(-c3cc(Nc4ccc(N5CN=NC5=O)cc4)nc(N4CCOCC4)n3)cc21` [4-(4-{[6-(1-methyl(1H-indazol-6-yl))-2-morpholin-4-ylpyrimidin-4-yl]amino}phenyl)-1,2,4-triazolin-5-one] here?
A: 1000 to 5000 nM

Q: `Cn1nc(CCCCO)c2ccc(-c3cc(Nc4ccc(Cl)cc4)nc(N4CCOCC4)n3)cc21` [4-(6-{6-[(4-chlorophenyl)amino]-2-morpholin-4-ylpyrimidin-4-yl}-1-methyl-1H-indazol-3-yl)butan-1-ol] was tested. Which IC50 did it give?
A: 1000 to 5000 nM

Q: Which IC50 does the source give for `CN1NC=C2CC=C(c3cc(Nc4ccc(C(N)=O)cc4)nc(N4CCOCC4)n3)C=C21` [4-((6-(1-methyl-4H-indazol-6-yl)-2-morpholinopyrimidin-4-yl)amino)benzamide] here?
A: 500 to 1000 nM

Q: With `NC(=O)c1ccc(Nc2cc(-c3ccc4ncn(CCN5CCOCC5)c4c3)nc(N3CCOCC3)n2)cc1` [4-({2-morpholin-4-yl-6-[1-(2-morpholin-4-ylethyl)benzimidazol-6-yl]pyrimidin-4-yl}amino)benzamide] as the molecule, how does the IC50 read?
A: 1000 to 5000 nM

Q: `COCCn1cnc2ccc(-c3cc(Nc4ccc(C(=O)O)cc4)nc(N4CCOCC4)n3)cc21` [4-({6-[1-(2-methoxyethyl)benzimidazol-6-yl]-2-morpholin-4-ylpyrimidin-4-yl}amino)benzoic acid] was tested. Which IC50 did it give?
A: 1000 to 5000 nM

Q: Which IC50 does the source give for `Cn1nc(CCN2CCOCC2)c2ccc(-c3cc(Nc4ccc(C#N)cc4)nc(N4CCOCC4)n3)cc21` [4-({6-[1-methyl-3-(2-morpholin-4-ylethyl)(1H-indazol-6-yl)]-2-morpholin-4-ylpyrimidin-4-yl}amino)benzenecarbonitrile] here?
A: 1000 to 5000 nM

Q: How did the IC50 turn out when `Cn1ncc2ccc(-c3cc(Nc4ccc(C#N)cc4)nc(N4CCOCC4)n3)cc21` [4-{[6-(1-methyl(1H-indazol-6-yl))-2-morpholin-4-ylpyrimidin-4-yl]amino}benzenecarbonitrile] was run?
A: 1000 to 5000 nM

Q: With `Cn1ncc2ccc(-c3cc(Nc4ccc(S(N)(=O)=O)cc4)nc(N4CCOCC4)n3)cc21` [4-{[6-(1-methyl(1H-indazol-6-yl))-2-morpholin-4-ylpyrimidin-4-yl]amino}benzenesulfonamide] as the molecule, how does the IC50 read?
A: 1000 to 5000 nM

Q: For `Cn1cnc2ccc(-c3cc(Nc4ccc(C(N)=O)cc4)nc(N4CCOCC4)n3)cc21` [4-{[6-(1-methylbenzimidazol-6-yl)-2-morpholin-4-ylpyrimidin-4-yl]amino}benzamide], which IC50 is on record?
A: 500 to 1000 nM

Q: How did the IC50 turn out when `Cn1cnc2ccc(-c3cc(Nc4ccc(C#N)cc4)nc(N4CCOCC4)n3)cc21` [4-{[6-(1-methylbenzimidazol-6-yl)-2-morpholin-4-ylpyrimidin-4-yl]amino}benzenecarbonitrile] was run?
A: 1000 to 5000 nM

Q: `Cn1cnc2ccc(-c3cc(Nc4ccc(S(N)(=O)=O)cc4)nc(N4CCOCC4)n3)cc21` [4-{[6-(1-methylbenzimidazol-6-yl)-2-morpholin-4-ylpyrimidin-4-yl]amino}benzenesulfonamide] was tested. Which IC50 did it give?
A: 1000 to 5000 nM

Q: How did the IC50 turn out when `Cn1ncc2ccc(-c3cc(Nc4ccccc4)nc(N4CCOCC4)n3)cc21` [6-(1-methyl-1H-indazol-6-yl)-2-morpholino-N-phenylpyrimidin-4-amine] was run?
A: 1000 to 5000 nM

Q: Which IC50 does the source give for `Clc1ccc(Nc2cc(-c3cccc4[nH]cnc34)nc(N3CCOCC3)n2)cc1` [6-(1H-benzo[d]imidazol-4-yl)-N-(4-chlorophenyl)-2-morpholinopyrimidin-4-amine] here?
A: 500 to 1000 nM

Q: For `Cc1cc2ccc(Nc3cc(-c4ccc5c(CCN6CCOCC6)nn(C)c5c4)nc(N4CCOCC4)n3)cc2n1C` [(1,2-dimethylindol-6-yl){6-[1-methyl-3-(2-morpholin-4-ylethyl)(1H-indazol-6-yl)]-2-morpholin-4-ylpyrimidin-4-yl}amine], which IC50 is on record?
A: 500 to 1000 nM
